The target in assay [1] is T1, RasGRP3 (Homo sapiens, UniProt Q8IV61).
T1 construct: full-length
T1 sequence (Q8IV61 1-690): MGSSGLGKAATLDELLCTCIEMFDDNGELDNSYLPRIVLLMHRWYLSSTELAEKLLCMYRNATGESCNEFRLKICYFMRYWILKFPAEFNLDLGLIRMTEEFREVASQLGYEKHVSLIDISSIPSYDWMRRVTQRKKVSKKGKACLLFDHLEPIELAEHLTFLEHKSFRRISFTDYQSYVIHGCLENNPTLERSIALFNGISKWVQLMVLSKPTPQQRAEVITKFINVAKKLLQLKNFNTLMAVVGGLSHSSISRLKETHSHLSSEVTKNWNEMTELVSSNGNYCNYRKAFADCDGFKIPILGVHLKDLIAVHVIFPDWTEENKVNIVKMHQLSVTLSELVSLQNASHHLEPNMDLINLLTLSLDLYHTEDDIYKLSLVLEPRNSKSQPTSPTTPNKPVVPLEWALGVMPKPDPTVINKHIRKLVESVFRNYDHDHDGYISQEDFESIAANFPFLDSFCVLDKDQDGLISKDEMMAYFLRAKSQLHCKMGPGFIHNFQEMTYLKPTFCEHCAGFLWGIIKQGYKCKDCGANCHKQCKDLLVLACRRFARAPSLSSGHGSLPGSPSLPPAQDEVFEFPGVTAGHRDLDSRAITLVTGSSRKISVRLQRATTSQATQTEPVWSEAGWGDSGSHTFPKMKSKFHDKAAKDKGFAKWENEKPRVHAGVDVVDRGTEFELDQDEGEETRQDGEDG
In words: competition radioligand binding with [3H]phorbol […],13-dibutyrate, […]°C.

Assay [2] deals with T1, RasGRP3. In words: [3H]PDBu radioligand binding.

Structures are written as SMILES.

A word on the Kd: it is the constant that tells how readily two partners part at equilibrium. On to `C/C=C(/C)C(=O)O[C@H]1C(C)=C[C@]23C(=O)[C@@H](C=C(CO)[C@@H](O)[C@]12O)[C@H]1[C@@H](C[C@H]3C)C1(C)C` [I3A, Ingenol-3-angelate], for which binding in assay [1] was put at a Kd of 0.045 ± 0.005 nM. In assay [2], `CCCC(=O)O[C@@H]1[C@@H](C)[C@@]2(O)[C@@H](C=C(CO)C[C@]3(O)C(=O)C(C)=C[C@@H]23)[C@@H]2C(C)(C)[C@]12OC(=O)CCC` [PDBu, phorbol 12,13-dibutyrate] came in with a Kd of 0.42 ± 0.03 nM.

The values are drawn from PMC3749120, “RasGRPs Are Targets of the Anti-Cancer Agent Ingenol-3-Angelate” (PLoS ONE, 2013).
